The structures appear in SMILES notation. pIC50: −log10 of the molar value. Read-outs that look alike come from different tables or passages of the source.

Consider five compounds from patent US20030225007A1, “Sulfonamide derivatives of 3-substituted imidazol[1,2-d]-1,2,4-thiadiazoles and 3-substituted-[1,2,4] thiadiazolo[4,5-a] benzimidazole as inhibitors of fibrin cross-linking and transglutaminases” (Apotex Inc., priority 2002, published 2003).

Assay [1] deals with T1, Factor XIIIa (activated FXIII) (Homo sapiens, UniProt P00488).
T1 construct: purchased Enzyme Research Laboratories, Ltd
T1 sequence (P00488 39-732 limits assumed): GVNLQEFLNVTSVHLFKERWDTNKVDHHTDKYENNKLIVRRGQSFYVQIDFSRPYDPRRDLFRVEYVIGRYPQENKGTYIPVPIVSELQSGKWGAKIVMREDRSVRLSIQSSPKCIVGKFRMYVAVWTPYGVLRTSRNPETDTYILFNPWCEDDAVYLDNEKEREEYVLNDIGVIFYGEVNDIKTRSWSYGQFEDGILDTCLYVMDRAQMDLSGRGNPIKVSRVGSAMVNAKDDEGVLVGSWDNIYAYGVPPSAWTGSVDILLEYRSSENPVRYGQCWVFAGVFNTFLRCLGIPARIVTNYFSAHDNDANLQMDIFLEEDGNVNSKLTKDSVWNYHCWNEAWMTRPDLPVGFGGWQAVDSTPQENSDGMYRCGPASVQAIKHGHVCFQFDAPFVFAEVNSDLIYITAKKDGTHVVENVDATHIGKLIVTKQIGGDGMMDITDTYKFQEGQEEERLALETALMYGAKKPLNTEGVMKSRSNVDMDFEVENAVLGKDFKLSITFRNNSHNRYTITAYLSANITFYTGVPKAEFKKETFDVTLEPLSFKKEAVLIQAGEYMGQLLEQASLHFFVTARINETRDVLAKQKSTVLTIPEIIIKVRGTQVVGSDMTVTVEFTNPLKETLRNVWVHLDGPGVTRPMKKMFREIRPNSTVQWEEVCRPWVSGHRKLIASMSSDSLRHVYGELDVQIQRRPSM
In words: Inactivation of purified Factor XIIIa (monodansylcadaverine incorporation into dimethylcasein, fluorescence). The note with it: for kinact/KI: purified Factor XIIIa, method of Kitz and Wilson, read-out: Second order rate constant for inactivation; for IC50: purified activated FXIII, 50% enzyme inactivation after 5-min incubation with inhibitor at 37° C. in the absence of substrate, read-out: FXIIIa (IC50 in μM); for pIC50: values without asterisk, purified FXIIIa, 5-min incubation, read-out: FXIIIa IC50 determined by method in Example 16. In kind it is biochemical. The method, boiled down: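 Read-out: fluorescence rise (360/500 nm) as 20 μM monodansylcadaverine is built into dimethylcasein at pH 8.0, 10 mM CaCl2. This measures activity left after a 5-min, 37° C., substrate-free exposure of thrombin-activated FXIII to inhibitor. IC50 means 50% inactivation under those conditions; rate constants by Kitz-Wilson method.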

Assay [2] deals with platelet-depleted and platelet-rich human plasma clots. As to the kind of experiment: Acceleration of fibrinolysis of platelet-depleted and platelet-rich plasma clots (t-PA lysis). Type of assay: biochemical. The note with it: platelet-depleted and platelet-rich human plasma clots made with varying inhibitor concentrations; lysis with 300 IU/mL t-PA; FIG. 3. As for the experimental part:
Platelet rich (platelet count: 150,000-300,000 mm^−3) or platelet-depleted citrated human plasma was prepared from at least three donors. Plasma (0.3 mL), containing 2-4 μg/mL of ^125I-labeled fibrinogen (specific activity approx. 200 μCi/mg, at least 85% clotability, Amersham Pharmacia Biotech UK Ltd.), was clotted by the addition of CaCl2 (6.4 μL) to a final concentration of 50 mM and thrombin (6.2 μL) to a final concentration of 5 units/mL. Solutions of Factor XIIIa inactivators in DMSO were added just prior to the addition of thrombin and CaCl2. In some cases the inactivator was dissolved and added to plasma in water. To these samples, DMSO (3.2 μL) was mixed in to make 1% final concentration. Conversely, water (3.2 μL) was added to clots to which inactivator was added in DMSO. […] The progress of the fibrinolysis was followed by quantitating the amount of radioactivity in a 20 μL aliquot of the lysis buffer at various lysis times. To measure the total amount of radioactivity in the clots taken for lysis, 0.6 mg bovine trypsin was added to each sample at the end of the lysis and the solutions were incubated for 4 hours at 37° C., or until the digestion was complete. An aliquot (20 μL) of the resulting solution was counted in the liquid scintillation counter. Per cent of fibrinolysis was then calculated with a correction for sub-sampling. […]

Broadly, the IC50 is the concentration that inhibits the measured activity by half. As usually defined, the pIC50 is the IC50 on a negative log10 scale, so that one unit is a factor of ten. In the case of `O=S(=O)(NCCCCCCNc1nsc2nccn12)c1cccc2ccccc12` [1-naphthyl, N-[6-(imidazo[1,2-d][1,2,4]thiadiazol-3-ylamino)hexyl]naphthalene-1-sulfonamide], in assay [1], the kinact/KI turned out to be 3300 M⁻¹ s⁻¹, the IC50 came to 0.52 µM and the pIC50 was 6.28.
For `O=C(O)CN(CCCCCCNS(=O)(=O)c1ccccc1[N+](=O)[O-])c1nsc2nccn12` [H / CH2CO2H / 2-NO2-Ph, N-imidazo[1,2-d][1,2,4]thiadiazol-3-yl-N-(6-{[(2-nitrophenyl)sulfonyl]amino}hexyl)glycine], in assay [1], the kinact/KI was determined as 4500 M⁻¹ s⁻¹, the IC50 amounted to 0.62 µM and the pIC50 is 6.21. The “fibrinolysis of plasma clots” value in assay [2] is on record as “acceleration of fibrinolysis”.
Regarding `O=S(=O)(NCCCCCCNc1nsc2nccn12)c1ccc(OC(F)(F)F)cc1` [4-OCF3-Ph, N-[6-(imidazo[1,2-d][1,2,4]thiadiazol-3-ylamino)hexyl]-4-trifluoromethoxybenzenesulfonamide], the pIC50 in assay [1] was 5.80.
For the compound `O=S(=O)(NCCCCCCNc1nsc2nccn12)c1ccc(F)cc1F` [2,4-diF-Ph, 2,4-difluoro-N-[6-(imidazo[1,2-d][1,2,4]thiadiazol-3-ylamino)hexyl]benzenesulfonamide], in assay [1], the IC50 worked out at 1.4 µM and the pIC50 was 5.85.
For the compound `O=S(=O)(Cc1ccccc1)NCCCCCCNc1nsc2nccn12` [2 / CH2Ph, N-[6-(imidazo[1,2-d][1,2,4]thiadiazol-3-ylamino)hexyl]-1-phenylmethanesulfonamide], the pIC50 in assay [1] was 5.11.
